# In publication PMC5538625, “Perception of root‐active CLE peptides requires CORYNE function in the phloem vasculature” (EMBO Reports, 2017):
# Where a chain is given by its changes, count along the chain named. Where two headings read alike, the source gives them in different places. Where no end group is shown, it is not given here. [ ]: non-standard residue; d: D form. Hyp = O=C(O)[C@@H]1C[C@@H](O)CN1
# T1: BAM3 extracellular domain (BAM3-ECD) (Arabidopsis thaliana, UniProt O65440 30-651)
# T1 chain: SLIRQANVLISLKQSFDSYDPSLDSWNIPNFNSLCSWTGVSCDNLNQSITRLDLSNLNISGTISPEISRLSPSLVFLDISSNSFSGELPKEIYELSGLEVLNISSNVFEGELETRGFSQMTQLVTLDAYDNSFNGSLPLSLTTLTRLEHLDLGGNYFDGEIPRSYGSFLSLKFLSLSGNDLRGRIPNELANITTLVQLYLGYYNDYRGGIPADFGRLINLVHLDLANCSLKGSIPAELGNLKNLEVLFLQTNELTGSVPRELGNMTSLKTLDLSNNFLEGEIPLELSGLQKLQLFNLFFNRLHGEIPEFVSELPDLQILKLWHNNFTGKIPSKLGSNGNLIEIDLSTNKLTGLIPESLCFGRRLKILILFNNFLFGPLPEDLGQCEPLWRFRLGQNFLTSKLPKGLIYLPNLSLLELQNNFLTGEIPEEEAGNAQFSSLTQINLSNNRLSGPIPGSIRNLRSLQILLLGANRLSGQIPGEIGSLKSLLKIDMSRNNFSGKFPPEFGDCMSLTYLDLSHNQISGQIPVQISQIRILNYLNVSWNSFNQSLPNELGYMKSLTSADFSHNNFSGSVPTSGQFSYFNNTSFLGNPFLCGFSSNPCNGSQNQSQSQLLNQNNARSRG
# T2: BAM3 extracellular domain (BAM3-ECD) (Arabidopsis thaliana, UniProt O65440 30-651)
# T2 construct: Cloned in a modified pFastBac1 with an N-terminal azurocidin signal peptide for secretion; MALDI-TOF mass 94,586 Da; also called BAM3 LRR domain; BAM3 ectodomain; source: Trichoplusia ni Tnao38 cells, secreted, purified (Ni2+, StrepII, size-exclusion chromatography)
# T2 sequence (looked up): T1 chain
# T3: BAM3^QYY extracellular domain (BAM3^QYY-ECD) (Arabidopsis thaliana, UniProt O65440 30-651, Q226A | Y228A | Y231A)
# T3 construct: Same construct as m1 (azurocidin signal peptide for secretion) with three point mutations; also called mutant BAM3^QYY; source: Trichoplusia ni Tnao38 cells, secreted, purified (Ni2+, StrepII, size-exclusion chromatography)
# T3 sequence (looked up): T1 chain with Q197A, Y199A, Y202A
# T4: BAM3^QYY extracellular domain (BAM3^QYY-ECD) (Arabidopsis thaliana, UniProt O65440 30-651, Q226A | Y228A | Y231A)
# T4 sequence: T1 chain with Q197A, Y199A, Y202A
# T5: PXY extracellular domain (PXY-ECD) (Arabidopsis thaliana, UniProt Q9FII5 30-647)
# T5 chain: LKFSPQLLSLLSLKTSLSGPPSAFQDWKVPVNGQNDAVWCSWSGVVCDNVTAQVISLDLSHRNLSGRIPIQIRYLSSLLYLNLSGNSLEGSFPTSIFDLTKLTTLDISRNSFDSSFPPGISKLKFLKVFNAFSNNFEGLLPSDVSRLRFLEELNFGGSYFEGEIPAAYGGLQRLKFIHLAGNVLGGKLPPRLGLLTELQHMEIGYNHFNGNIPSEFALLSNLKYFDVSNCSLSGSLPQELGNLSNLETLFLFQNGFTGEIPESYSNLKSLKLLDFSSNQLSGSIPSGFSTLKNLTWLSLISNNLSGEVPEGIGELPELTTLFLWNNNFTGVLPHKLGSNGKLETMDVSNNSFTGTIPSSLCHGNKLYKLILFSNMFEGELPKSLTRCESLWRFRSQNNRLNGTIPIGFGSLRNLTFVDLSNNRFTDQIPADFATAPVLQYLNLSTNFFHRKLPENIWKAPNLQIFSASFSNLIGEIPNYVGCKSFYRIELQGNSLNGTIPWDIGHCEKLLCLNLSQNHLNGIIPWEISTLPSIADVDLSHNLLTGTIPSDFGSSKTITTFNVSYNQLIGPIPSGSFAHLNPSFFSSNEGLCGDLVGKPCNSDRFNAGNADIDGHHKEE
# B1: CLV3 peptide (ITC) (peptide)
# peptide: RTV[Hyp]SG[Hyp]DPLHHH
# notes: CLAVATA3 (CLV3) mature CLE peptide of Arabidopsis, 13 residues as printed for the ITC; the ITC peptide is printed with three C-terminal histidines; source: synthetic peptide (Peptide Specialty Laboratories, Heidelberg)
# B2: CLE45 peptide (peptide)
# peptide: RRVRRGSDPIHN
# notes: CLE45, mature 12-residue CLE peptide of Arabidopsis; also called synthetic CLE45 peptide; source: synthetic peptide (Peptide Specialty Laboratories, Heidelberg)
# B3: CLE41/44 peptide (ITC, unmodified as printed) (peptide)
# peptide: HEVPSGPNPISN
# notes: CLE41/44 (TDIF), mature 12-residue CLE peptide of Arabidopsis, the same from CLE41 and CLE44; The same peptide is also encoded by CLE44; also called TDIF; source: synthetic peptide (Peptide Specialty Laboratories, Heidelberg)
# Tests used:
# [1] = tested on: Arabidopsis Col-0 seedlings (primary root); settings: cited from earlier work
# Experimental: page 3: EMBO reports - Peer Review Process File - EMBO-2016-43535 including a report from the same group (Kinoshita et al, 2007 Plant Cell Physiol 48:1821; Whitford et al, 2008 PNAS 105:18625; Depuydt et al. 2013 PNAS 110:7074) where CLE6 peptides exert the root shortening activity only at a very high concentration (10 µM). Results on CLE8, CLE16, CLE17, CLE20 and CLE22 are also different from the previous report (Depuydt et al. 2013). […] Please indicate the meaning of the asterisks in column "Col-0" in Figure 2B, "***a" and "***b" in Figure 2C, describe all the peptide sequences used in this study and re-confirm if the results are correct and reproducible. The details are the following.” ….and subordinate comments.
# BAM3 = settings: ref Shinohara et al., 2012; cited from earlier work
# Excerpt: page 6: EMBO reports - Peer Review Process File - EMBO-2016-43535 of both. […] Or alternatively to measure mRNA level by qRT-PCR. This will at least resolve if it's transcriptional regulation or not. 3. One way to bolster their statement about CRN's BAM3 regulation would be to do a simple complementation. If authors' already generated CRN::CRN in crn mutant background, we highly recommend that the authors use this line as well. BAM3-BAM3-CITRINE construct are introduced ...
# [2] = tested on: bam3 mutant seedlings (primary root); settings: compared with WT; ref Depuydt et al., 2013; cited from earlier work
# Excerpt: (§1) “6. We'd also like the authors to answer or discuss following aspects in the discussion part.” “6-1. How do you explain the insensitivity of crn to all CLE peptides? Does it control expression of CLV as well?” At this point we can only speculate on this. As we highlight in the discussion, maybe the expression of other, yet to be identified CLE receptors in the root also depends on CR ...
# BAM1 = settings: CLE9gp arabinosylated, CLE9p non-arabinosylated; ref Shinohara et al., 2012; cited from earlier work
# Excerpt: as §1
# [3] = biological target: IDA peptide (Arabidopsis thaliana) (UniProt Q8LAD7); settings: cited from earlier work
# [4] = biological target: IDA peptide (Arabidopsis thaliana) (UniProt Q8LAD7); settings: cited from earlier work; remark: listed apart in the source
# [5] = tested on: Arabidopsis Col-0 seedlings (primary root); assay: Root growth assay, wild type (Col-0); type: in vivo, Arabidopsis thaliana; settings: 50 nM peptide, 9-day-old seedlings, primary root length, n ≥ 12
# Experimental: Plant tissue culture, plant transformation, and common molecular biology procedures such as genomic DNA isolation, genotyping, sequencing, and peptide or inhibitor treatments were performed according to standard procedures as previously described 9, 19, 44, 65.
# All mutant and transgenic lines were in the Arabidopsis Columbia‐0 (Col‐0) background. The following previously described mutant alleles were used throughout: brx‐2, bam3‐2, brx‐2 bam3, clv2‐1, serk1‐1 and serk1‐3, serk2‐1, serk3‐1, serk4‐1, serk5‐1 9, 47, 59, 66, 67, 68. The crn loss‐of‐function mutant allele (crn‐10) carries a single nucleotide insertion in front of the 7th codon, which leads to a frameshift and three subsequent premature stop codons after amino acid 10 52.
# [6] = biological target: T6, BAM3 extracellular (LRR) domain (30–651) (Arabidopsis thaliana, UniProt O65440); assay: biochemical; type: binding
# T6 construct: azurocidin signal peptide (N); made in house; host or cells: Trichoplusia ni Tnao38 insect cells (baculovirus, secreted)
# Experimental: Isothermal titration calorimetry assays were run on a Nano ITC (1 ml standard cell; 250 μl syringe; TA Instruments) at 25°C in 20 mM sodium citrate pH 5 and 150 mM NaCl for all ITCs with BAM3 and 10 mM Bis–Tris pH 6 and 100 mM NaCl for the ITC with PXY. […] For each experiment, 10 μl was repetitively injected into the cell in 150 s time intervals. The measured heat rates for the BAM3‐ECD vs. CLE45, BAM3^QYY vs. CLE45, BAM3‐ECD vs. Y‐CLE45, BAM3‐ECD vs. CLV3, BAM3‐ECD vs. Y‐CLV3, and PXY‐ECD vs. CLE41/44 were corrected by subtracting the heat rates measured for injecting CLE45, Y‐CLE45, CLV3, Y‐CLV3, or CLE41/44 into the ITC buffer, respectively. The data for the BAM3‐ECD + CLE45 vs. SERK1‐ECD measurement was corrected by subtracting heat rates acquired by injecting SERK1‐ECD into a cell containing CLE45. Data analyses and modeling were carried out using the software supplied by the manufacturer (NanoAnalyze, version 3.5).
# [7] = biological target: T1, BAM3 extracellular domain (BAM3-ECD); assay: ITC
# [8] = biological target: T2, BAM3 extracellular domain (BAM3-ECD); assay: ITC; peptide titrated (10 μl injections, 150 s intervals) into the BAM3 ectodomain in the cell; Nano ITC, 25°C, 20 mM sodium citrate pH 5, 150 mM NaCl; settings: both partners purified
# [9] = biological target: T3, BAM3^QYY extracellular domain …; assay: as above; settings: both partners purified
# [10] = biological target: T4, BAM3^QYY extracellular domain …; assay: ITC
# [11] = biological target: T5, PXY extracellular domain (PXY-ECD); assay: ITC
# IDA peptide (Arabidopsis thaliana), sequence (Q8LAD7 27-77): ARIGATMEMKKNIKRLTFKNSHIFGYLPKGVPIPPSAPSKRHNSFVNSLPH
molecule,measurement,setting,value
"CLE6: CLE6 peptide (earlier reports; not assayed) (RVSPGGPDPQHH; ends and bridges not checked; UniProt Q8S8N3 70-81, looked up)",concentration needed for root shortening activity,"[1]; referee's comment, ref Kinoshita et al, 2007, Whitford et al, 2008, Depuydt et al. 2013",10 µM
same,root growth suppression in words,"[1]; tissue culture, nM to low μM concentrations",not root-active
"CLE9: CLE9 (earlier reports) (RLVPSGPNPLHN; ends and bridges not checked; UniProt Q9FZE4 109-120, looked up)","binding to BAM3, in words",BAM3,BAM3 has been shown to have a binding activity to CLE9
same,root response of bam3 mutants,[2],not suppressed in bam3 mutant plants
"CLE9gp: arabinosylated CLE9 (RLVPSGPNPLHN; ends and bridges not checked; also: arabinosylated, place not given here; UniProt Q9FZE4 109-120, looked up)",Kd,BAM1,2.2 nM
"CLE9p: non-arabinosylated CLE9 (RLVPSGPNPLHN; ends and bridges not checked; UniProt Q9FZE4 109-120, looked up)",Kd,BAM1,1.8 nM
HAESA (from UniProt P47735),Kd,[3],20 µM
same,Kd,[4],350 nM
"RKVKTGSNPLHN [CLE20, CLE20: …]",impact on root growth,[5],"significant, reproducible impact on root growth"
"RKVPNGPDPIHN [CLE25, CLE25: …]",impact on root growth,[5],"significant, reproducible impact on root growth"
"RLVHTGPNPLHN [CLE16, CLE16: …]",impact on root growth,[5],"significant, reproducible impact on root growth"
"RLVPKGPNPLHN [CLE14, CLE14: …]",impact on root growth,[5],"significant, reproducible impact on root growth"
"RLVPSGPNPLHH [CLE13, CLE13: …]",impact on root growth,[5],"significant, reproducible impact on root growth"
"RLVPSGPNPLHN [CLE9/10, CLE9/10: …]",impact on root growth,[5],"significant, reproducible impact on root growth"
"RQIPTGPDPLHN [CLE18, CLE18: …]",impact on root growth,[5],"significant, reproducible impact on root growth"
"RQVPTGSDPLHH [CLE40, CLE40: …]",impact on root growth,[5],"significant, reproducible impact on root growth"
"RRVPTGPNPLHH [CLE8, CLE8: …]",impact on root growth,[5],"significant, reproducible impact on root growth"
RRVRRGSDPIHN [CLE45],Kd,[6],116 ± 36 nM
"RSIPTGPNPLHN [CLE21, CLE21: …]",impact on root growth,[5],"significant, reproducible impact on root growth"
"RTVPSGPDPLHH [CLV3, CLV3: …]",impact on root growth,[5],"significant, reproducible impact on root growth"
same,N (stoichiometry),"[6]; ITC, 25°C, 20 mM sodium citrate pH 5, 150 mM NaCl, ± fitting errors (95% confidence interval), n.d.: not detectable",0.978 +/- 0.23
same,reduction in binding affinity of CLV3 vs. CLE45 (fold),"[6]; ITC, Fig EV1C vs. CLE45",70 fold
"RVVPSGPNPLHH [CLE11, CLE11: …]",impact on root growth,[5],"significant, reproducible impact on root growth"
YRRVRRGSDPIHN [N-terminally tyrosine-modified CLE45 peptide (Y-CLE45)],Kd,[7],12.7 µM
B1,Kd,[8],~10 µM
same,Kd,[7],8.62 µM
B2,Kd,[8],~0.12 µM
same,stoichiometry N,[8],1
same,fold weaker than with the wild-type LRR domain,[9],~8 fold
same,Kd,[10],1110 nM
B3,Kd,[11],12.2 nM
